The subject of assay [1] is male mice (Charles River CDl). The assay is described as follows: natriuresis in mice in vivo (saline loaded conscious mice). The note with it: i.v. via tail vein, urine collected for two hours. The arrangement: species or system mouse. On the procedure:
The activity of the compounds as diuretic agents is determined by measuring their ability to increase urine output and sodium ion excretion in saline loaded conscious mice. In this test, male mice (Charles River CDl, 22-28 g) are acclimatised and starved overnight in metabowls. The mice are dosed intravenously via the tail vein, with the test compound dissolved in a volume of saline solution equivalent to 2.5% of body weight. Urine samples are collected each hour for two hours in pre-weighed tubes and analysed for electrolyte concentration. Urine volume and sodium ion concentration from the test animals are compared to a control group which received only saline.
(§1) The activity of the racemate and separated enantiomers of the cis-4-{1-[2-carboxy-3-(2-methoxyethoxy)propyl]-1-cyclopentanecarboxamido}- 1-cyclohexanecarboxylic acid was assessed by measuring their ability to inhibit the neutral endopeptidase E.C.3.4.24.11 in vitro or to induce natriuresis in mice in vivo following the procedures described herein.

The target in assay [2] is T1, neutral endopeptidase E.C.3.4.24.11 (Rattus norvegicus, UniProt P07861).
T1 construct: neutral endopeptidase preparation from rat kidney; from tissue; host or cells: rat kidney
T1 sequence (P07861 1-750): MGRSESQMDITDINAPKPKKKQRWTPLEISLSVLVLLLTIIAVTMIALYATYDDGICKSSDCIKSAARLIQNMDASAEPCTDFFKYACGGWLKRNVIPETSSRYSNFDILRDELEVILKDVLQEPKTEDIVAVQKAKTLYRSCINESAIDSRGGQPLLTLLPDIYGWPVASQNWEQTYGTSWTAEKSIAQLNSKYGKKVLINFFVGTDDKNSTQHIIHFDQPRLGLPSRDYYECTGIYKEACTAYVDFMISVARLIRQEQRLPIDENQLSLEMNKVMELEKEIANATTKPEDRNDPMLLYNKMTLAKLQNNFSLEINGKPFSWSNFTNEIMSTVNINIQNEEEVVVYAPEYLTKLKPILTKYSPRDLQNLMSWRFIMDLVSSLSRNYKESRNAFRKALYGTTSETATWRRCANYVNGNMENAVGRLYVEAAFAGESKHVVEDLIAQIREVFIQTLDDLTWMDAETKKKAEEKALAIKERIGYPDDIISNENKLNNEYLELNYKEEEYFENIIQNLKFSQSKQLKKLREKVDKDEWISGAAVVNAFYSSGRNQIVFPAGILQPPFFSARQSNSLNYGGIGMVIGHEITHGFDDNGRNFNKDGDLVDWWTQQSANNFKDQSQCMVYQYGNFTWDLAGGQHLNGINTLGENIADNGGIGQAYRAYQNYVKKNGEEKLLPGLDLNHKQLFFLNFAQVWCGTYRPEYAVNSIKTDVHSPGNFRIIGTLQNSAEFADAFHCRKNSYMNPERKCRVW
The assay is described as follows: inhibition of the neutral endopeptidase E.C.3.4.24.11 in vitro. The class given is biochemical. As for the experimental part: Activity against neutral endopeptidase E.C.3.4.24.11 is assessed using a procedure based on the assay described by J. T. Gafford, R. A. Skidgel, E. G. Erdos and L. B. Hersh, Biochemistry, 1983, […], 3265-3271. The method involves determining the concentration of compound required to reduce by 50% the rate of release of radiolabelled hippuric acid from hippuryl-L-phenylalanyl-L-arginine by a neutral endopeptidase preparation from rat kidney.
as §1
The compounds were assessed for their ability to inhibit the neutral endopeptidase E.C.3.4.24.11 following the procedure described herein.

The mark [3] stands for this setting: in vitro, neutral endopeptidase preparation from rat kidney, racemate and enantiomers (Example 445), read-out: IC50 against E.C.3.4.24.11.
The mark [4] stands for this setting: neutral endopeptidase E.C.3.4.24.11, rat kidney preparation (Example 454), read-out: IC50.

The structures appear in SMILES notation. Read-outs that look alike come from different tables or passages of the source.

The IC50 is the concentration needed to halve the response being measured. As to `COCCOCC(CC1(C(=O)N[C@H]2CC[C@@H](C(=O)O)CC2)CCCC1)C(=O)O` (mixture of isomers) [(±) R,S, cis-4-{1-[2-carboxy-3-(2-methoxyethoxy)propyl]-1-cyclopentanecarboxamido}-1-cyclohexanecarboxylic acid], the “Natriuresis in mouse (i.v.)” value in assay [1] was “active at 3 mg/kg”. Besides, the concentration for half-maximal inhibition (IC50) in assay [2] (setting [3]) was determined as 48 nM.

For the compound `COCCOC[C@H](CC1(C(=O)N[C@H]2CC[C@@H](C(=O)O)CC2)CCCC1)C(=O)O` [(+) S, (S)-cis-4-{1-[2-Carboxy-3-(2-methoxyethoxy)propyl]-1-cyclopentanecarboxamido}-1-cyclohexanecarboxylic acid], the “Natriuresis in mouse (i.v.)” value in assay [1] was “active at 1.5 mg/kg”. Further, the half-inhibitory concentration (IC50) in assay [2] (setting [3]) worked out at 39 nM. Turning to `CCCCC1CC(NC(=O)C2(CC(CCOC)C(=O)O)CCCC2)CCC1C(=O)O` (centres unmarked) [Example 453, 3-[1-(c-4-Carboxy-c-3-butylcyclohexyl-r-1-carbamoyl)cyclopentyl]-2-(2-methoxyethyl)propanoic acid], the IC50 in assay [2] (setting [4]) is 8 nM. Take `CCCCC1CC(NC(=O)C2(C[C@@H](COCCOC)C(=O)O)CCCC2)CCC1C(=O)O` (single isomer, unassigned) [Example 449 isomer B, 3-[1-(c-4-Carboxy-c-3-butylcyclohexyl-r-1-carbamoyl)cyclopentyl]-2S-(2-methoxyethoxymethyl)propanoic acid]: the IC50 in assay [2] (setting [4]) came to 5.6 nM. On the same count and under the same terms, under `CCCCC1CC(NC(=O)C2(C[C@@H](COCCOC)C(=O)O)CCCC2)CCC1C(=O)O` (stereo partly drawn) [Example 451, 3-[1-(c-4-Carboxy-t-3-butyl-r-1-carbamoyl)cyclopentyl]-2S-(2-methoxyethoxymethyl)propanoic acid] stands 7.9 nM; under `CCCCC1CC(NC(=O)C2(C[C@@H](COCCOC)C(=O)O)CCCC2)CCC1C(=O)O` (single isomer, unassigned; isomer a) [Example 449 isomer A, 3-[1-(c-4-Carboxy-c-3-butylcyclohexyl-r-1-carbamoyl)cyclopentyl]-2S-(2-methoxyethoxymethyl)propanoic acid], 3.6 nM. Same read-out and setting: to `COCCC(CC1(C(=O)N[C@H]2CC[C@@H](C(=O)O)CC2)CCCC1)C(=O)O` (relative stereo) [Example 217, 3-{1-[(cis-4-Carboxy-cyclohexyl)carbamoyl]cyclopentyl}-2-(2-methoxyethyl)propanoic acid] belongs 50 nM. With `COCCOC[C@@H](CC1(C(=O)N[C@H]2CC[C@@H](C(=O)O)CC2)CCCC1)C(=O)O` [(-) R, cis-4-{1-[2-carboxy-3-(2-methoxyethoxy)propyl]-1-cyclopentanecarboxamido}-1-cyclohexanecarboxylic acid], the “Natriuresis in mouse (i.v.)” value in assay [1] is “inactive at 3 mg/kg”. The IC50 in assay [2] (setting [3]) is under 1000 nM.

The values are drawn from patent US5030654A, “Glutaramide diuretic agents” (Pfizer Inc., priority 1986, dated 1991).
